Test results published in paper PMC6917776, “Discovery of a chemical probe for PRDM9” (Nature Communications, 2019).
Read-outs that look alike come from different tables or passages of the source.

Experiment: CelltiterGlo viability cell assay
Type: cell-based
Conditions: human
Procedure, shortened: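 CelltiterGlo luminescence, day 3 and day 6 readouts; compound 0.01–30 μM; data normalized to DMSO; n=3 biological replicates ± SEM.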

[1] = HCC1143 breast cancer cells, HCC1143, 6 day, read-out: viability Replicate 3
[2] = HCC1143 breast cancer cells, HCC1143, 6 day, read-out: viability Average
[3] = HCC1143 breast cancer cells, HCC1143, 6 day, read-out: viability Replicate 1
[4] = HCC1143 breast cancer cells, HCC1143, 6 day, read-out: viability Replicate 2
[5] = HCC1806 breast cancer cells, HCC1806, 3 day, read-out: viability Average
[6] = HCC1806 breast cancer cells, HCC1806, 3 day, read-out: viability Replicate 1
[7] = HCC1806 breast cancer cells, HCC1806, 3 day, read-out: viability Replicate 2
[8] = HCC1806 breast cancer cells, HCC1806, 3 day, read-out: viability Replicate 3
[9] = HCC1806 breast cancer cells, HCC1806, 6 day, read-out: viability Average
[10] = HCC1806 breast cancer cells, HCC1806, 6 day, read-out: viability Replicate 1
[11] = HCC1806 breast cancer cells, HCC1806, 6 day, read-out: viability Replicate 2
[12] = HCC1806 breast cancer cells, HCC1806, 6 day, read-out: viability Replicate 3
[13] = HCC1806 cells, HCC1806, 3 day, read-out: viability Average
[14] = HCC1806 cells, HCC1806, 3 day, read-out: viability Replicate 1
[15] = HCC1806 cells, HCC1806, 3 day, read-out: viability Replicate 2
[16] = HCC1806 cells, HCC1806, 3 day, read-out: viability Replicate 3

Structure (SMILES): COc1cc(OC)cc(-c2noc(N3CCN(C)C4(CCN(c5ccnc(C)c5)CC4)C3)n2)c1 [MRK-740]
- viability at 6 day, 0.03 µM [1]: 104%
- viability at 6 day, 0.1 µM [2]: 105%
- viability at 6 day, 0.1 µM [3]: 103%
- viability at 6 day, 0.1 µM [4]: 102%
- viability at 6 day, 0.1 µM [1]: 111%
- viability at 6 day, 0.3 µM [2]: 110%
- viability at 6 day, 0.3 µM [3]: 109%
- viability at 6 day, 0.3 µM [4]: 111%
- viability at 6 day, 0.3 µM [1]: 111%
- viability at 6 day, 1 µM [2]: 112%
- viability at 6 day, 1 µM [3]: 114%
- viability at 6 day, 1 µM [4]: 108%
- viability at 6 day, 1 µM [1]: 113%
- viability at 6 day, 3 µM [2]: 108%
- viability at 6 day, 3 µM [3]: 106%
- viability at 6 day, 3 µM [4]: 109%
- viability at 6 day, 3 µM [1]: 110%
- viability at 6 day, 9.5 µM [2]: 79.4%
- viability at 6 day, 9.5 µM [3]: 79.5%
- viability at 6 day, 9.5 µM [4]: 78.6%
- viability at 6 day, 9.5 µM [1]: 80.2%
- viability at 6 day, 30 µM [2]: 18.9%
- viability at 6 day, 30 µM [3]: 20.9%
- viability at 6 day, 30 µM [4]: 18.4%
- viability at 6 day, 30 µM [1]: 17.3%
- viability at 3 day, 0.1 µM (HCC1143 cells, HCC1143, 3 day, read-out: viability Average): 93.6%
- viability at 3 day, 0.1 µM (HCC1143 cells, HCC1143, 3 day, read-out: viability Replicate 1): 95.6%
- viability at 3 day, 0.1 µM (HCC1143 cells, HCC1143, 3 day, read-out: viability Replicate 2): 90.7%
- viability at 3 day, 0.1 µM (HCC1143 cells, HCC1143, 3 day, read-out: viability Replicate 3): 94.6%
- viability at 3 day, 0.01 µM [5]: 107%
- viability at 3 day, 0.01 µM [6]: 103%
- viability at 3 day, 0.01 µM [7]: 110%
- viability at 3 day, 0.01 µM [8]: 107%
- viability at 3 day, 0.03 µM [5]: 102%
- viability at 3 day, 0.03 µM [6]: 99.9%
- viability at 3 day, 0.03 µM [7]: 101%
- viability at 3 day, 0.03 µM [8]: 104%
- viability at 3 day, 1 µM [5]: 103%
- viability at 3 day, 1 µM [6]: 104%
- viability at 3 day, 1 µM [7]: 111%
- viability at 3 day, 1 µM [8]: 94.5%
- viability at 3 day, 3 µM [5]: 89.8%
- viability at 3 day, 3 µM [6]: 92.2%
- viability at 3 day, 3 µM [7]: 107%
- viability at 3 day, 3 µM [8]: 70.5%
- viability at 3 day, 9.5 µM [5]: 37.6%
- viability at 3 day, 9.5 µM [6]: 40.7%
- viability at 3 day, 9.5 µM [7]: 51.7%
- viability at 3 day, 9.5 µM [8]: 20.5%
- viability at 3 day, 30 µM [5]: 11.6%
- viability at 3 day, 30 µM [6]: 13.2%
- viability at 3 day, 30 µM [7]: 14.9%
- viability at 3 day, 30 µM [8]: 6.61%
- viability at 6 day, 0.01 µM [9]: 102%
- viability at 6 day, 0.01 µM [10]: 107%
- viability at 6 day, 0.01 µM [11]: 100%
- viability at 6 day, 0.01 µM [12]: 99.6%
- viability at 6 day, 0.03 µM [9]: 106%
- viability at 6 day, 0.03 µM [10]: 111%
- viability at 6 day, 0.03 µM [11]: 101%
- viability at 6 day, 0.03 µM [12]: 106%
- viability at 6 day, 0.1 µM [9]: 106%
- viability at 6 day, 0.1 µM [10]: 107%
- viability at 6 day, 0.1 µM [11]: 106%
- viability at 6 day, 0.1 µM [12]: 106%
- viability at 6 day, 0.3 µM [9]: 109%
- viability at 6 day, 0.3 µM [10]: 113%
- viability at 6 day, 0.3 µM [11]: 106%
- viability at 6 day, 0.3 µM [12]: 108%
- viability at 6 day, 1 µM [9]: 103%
- viability at 6 day, 1 µM [10]: 102%
- viability at 6 day, 1 µM [11]: 101%
- viability at 6 day, 1 µM [12]: 107%
- viability at 6 day, 3 µM [9]: 63.9%
- viability at 6 day, 3 µM [10]: 63.2%
- viability at 6 day, 3 µM [11]: 58.6%
- viability at 6 day, 3 µM [12]: 69.8%
- viability at 6 day, 9.5 µM [9]: 24.9%
- viability at 6 day, 9.5 µM [10]: 23.5%
- viability at 6 day, 9.5 µM [11]: 25%
- viability at 6 day, 9.5 µM [12]: 26.3%
- viability at 6 day, 30 µM [9]: 4.91%
- viability at 6 day, 30 µM [10]: 5.1%
- viability at 6 day, 30 µM [11]: 5.11%
- viability at 6 day, 30 µM [12]: 4.53%
- viability at 3 day, 0.1 µM [13]: 110%
- viability at 3 day, 0.1 µM [14]: 122%
- viability at 3 day, 0.1 µM [15]: 110%
- viability at 3 day, 0.1 µM [16]: 97.6%
- viability at 3 day, 0.3 µM [13]: 106%
- viability at 3 day, 0.3 µM [14]: 109%
- viability at 3 day, 0.3 µM [15]: 108%
- viability at 3 day, 0.3 µM [16]: 101%
- viability at 3 day, 0.01 µM (MDA-MB-436 breast cancer cells, MDA MB436, 3 day, read-out: viability Average): 104%
- viability at 3 day, 0.01 µM (MDA-MB-436 breast cancer cells, MDA MB436, 3 day, read-out: viability Replicate 1): 123%
